Like-named read-outs stand apart in the source and are kept apart here.

Assay [1] relates to H929 multiple myeloma tumour line. Kind of assay: In vitro cytotoxicity, Microculture Tetrazolium Assay. The assay is classed as cell-based. The conditions noted are these: read-out: IC50 (μM) MTT H929. As to the method:
The cytotoxicity studies were carried out on the H929 multiple myeloma tumour line.
The cells are distributed onto microplates and exposed to the test compounds for 48 hours.

The next assay addresses Mcl-1 protein (UniProtKB primary accession number: Q07820) (Homo sapiens, UniProt Q07820). Nature of the assay: Inhibition of Mcl-1 by fluorescence polarisation, Method 1. Type of assay: binding. As to conditions: for IC50: read-out: IC50 (M) Mcl-1 FP; for percentage fluorescence polarisation inhibition (Mcl-1 FP), partial inhibitors: test compound at 10 uM. An outline of the steps:
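An 11-point DMSO dilution of compound is mixed with buffer (10 mM HEPES, 150 mM NaCl, 0.05% Tween 20, pH 7.4) carrying 1 nM fluorescein-labelled ligand and 5 nM Mcl-1, final concentrations. Displacement is monitored by fluorescence polarisation.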
On the technique in general: Polarisation of emitted light reports the rotation of a fluorescent probe.

[2] abbreviates: Homo sapiens, NCI-H929, 48 h, H929 cells, 48 hours exposure, MTT.
The mark [3] stands for this setting: fluorescence polarisation test, Method 2 values are underlined in the patent (underlining not visible here).
[4] abbreviates: Method 1, or Method 2 where the value is underlined (underlining not visible).
Where [5] appears, read: fluorescence polarisation test, Method 1, or Method 2 where the value is underlined (underlining not visible).

Sequence of Mcl-1 protein (Q07820 whole entry): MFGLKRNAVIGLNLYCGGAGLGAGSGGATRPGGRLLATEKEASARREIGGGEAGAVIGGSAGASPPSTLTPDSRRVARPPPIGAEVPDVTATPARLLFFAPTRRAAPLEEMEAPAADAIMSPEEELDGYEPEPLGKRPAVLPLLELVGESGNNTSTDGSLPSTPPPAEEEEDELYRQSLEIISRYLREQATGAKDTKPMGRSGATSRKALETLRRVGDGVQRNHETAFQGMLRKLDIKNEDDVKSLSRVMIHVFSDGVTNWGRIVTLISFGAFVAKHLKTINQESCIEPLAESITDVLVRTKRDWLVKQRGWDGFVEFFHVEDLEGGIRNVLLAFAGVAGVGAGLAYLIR

Take `CCCCCn1nccc1C(C)Oc1ccccc1CC(Oc1ncnc2sc(-c3ccc(F)cc3)c(-c3ccc(OCCN4CCN(C)CC4)c(Cl)c3C)c12)C(=O)O` (single isomer, unassigned) [Example 5, (2R)-2-{[(5Sa)-5-{3-chloro-2-methyl-4-[2-(4-methylpiperazin-1-yl)ethoxy]phenyl}-6-(4-fluorophenyl)thieno[2,3-d]pyrimidin-4-yl]oxy}-3-{2-[(1R or S)-1-(1-pentyl-1H-pyrazol-5-yl)ethoxy]phenyl}propanoic acid]: the IC50 in assay [1] (setting [2]) amounted to 0.418 µM; at Mcl-1 protein (setting [3]), 6.2e-09 M.

Consider `CCCCCn1nccc1C(C)Oc1ccccc1CC(Oc1ncnc2sc(-c3ccc(F)cc3)c(-c3ccc(OCCN4CCN(C)CC4)c(Cl)c3C)c12)C(=O)O` (single isomer, unassigned) [Example 6, (2R)-2-{[(5Sa)-5-{3-chloro-2-methyl-4-[2-(4-methylpiperazin-1-yl)ethoxy]phenyl}-6-(4-fluorophenyl)thieno[2,3-d]pyrimidin-4-yl]oxy}-3-{2-[(1S or R)-1-(1-pentyl-1H-pyrazol-5-yl)ethoxy]phenyl}propanoic acid], for which the IC50 in assay [1] (H929 cells, 48 hours exposure, MTT) came to 0.332 µM; on Mcl-1 protein (setting [3]), 4.9e-09 M. Turning to `Cc1c(-c2c(-c3ccc(F)o3)sc3ncnc(OC(Cc4ccccc4OCc4ccnn4CC(F)(F)F)C(=O)O)c23)ccc(OCCN2CCN(C)CC2)c1Cl` [Example 185, (2R)-2-{[(5Sa)-5-{3-chloro-2-methyl-4-[2-(4-methylpiperazin-1-yl)ethoxy]phenyl}-6-(5-fluorofuran-2-yl)thieno[2,3-d]pyrimidin-4-yl]oxy}-3-(2-{[1-(2,2,2-trifluoroethyl)-1H-pyrazol-5-yl]methoxy}phenyl)propanoic acid], in assay [1] (Homo sapiens, NCI-H929, 48 h), the IC50 came out at 0.012 µM. On to `Cc1c(-c2c(-c3ccco3)sc3ncnc(OC(Cc4ccccc4OCc4ccnn4CC(F)(F)F)C(=O)O)c23)ccc(OCCN2CCN(C)CC2)c1Cl` [Example 265, (2R)-2-{[(5Sa)-5-{3-chloro-2-methyl-4-[2-(4-methylpiperazin-1-yl)ethoxy]phenyl}-6-(furan-2-yl)thieno[2,3-d]pyrimidin-4-yl]oxy}-3-(2-{[1-(2,2,2-trifluoroethyl)-1H-pyrazol-5-yl]methoxy}phenyl)propanoic acid], for which the IC50 in assay [1] (setting [2]) was 0.016 µM. Consider `COc1ccccc1-c1nccc(COc2ccccc2C[C@@H](Oc2ncnc3sc(-c4ccc(F)cc4)c(-c4ccc(OC)c(Cl)c4C)c23)C(=O)OCC(=O)N(C)C)n1` [Example 848, 2-(dimethylamino)-2-oxoethyl (2R)-2-{[(5Sa)-5-(3-chloro-4-methoxy-2-methylphenyl)-6-(4-fluorophenyl)thieno[2,3-d]pyrimidin-4-yl]oxy}-3-(2-{[2-(2-methoxyphenyl)pyrimidin-4-yl]methoxy}phenyl)propanoate], for which, at Mcl-1 protein (setting [4]), the “percentage fluorescence polarisation inhibition (Mcl-1 FP), partial inhibitors” value was 46.7% @ 10 uM. With `COc1ccccc1-c1nccc(COc2ccccc2C[C@@H](Oc2ncnc3sc(-c4ccc(F)cc4)c(-c4ccc(OC)c(Cl)c4C)c23)C(=O)OCOC(=O)C(C)(C)C)n1` [Example 849, {[(2R)-2-{[(5Sa)-5-(3-chloro-4-methoxy-2-methylphenyl)-6-(4-fluorophenyl)thieno[2,3-d]pyrimidin-4-yl]oxy}-3-(2-{[2-(2-methoxyphenyl)pyrimidin-4-yl]methoxy}phenyl)propanoyl]oxy}methyl 2,2-dimethylpropanoate], on Mcl-1 protein (setting [4]), the “percentage fluorescence polarisation inhibition (Mcl-1 FP), partial inhibitors” value was determined as 61.35% @ 10 uM. Consider `CCCCCCCCOC(=O)[C@@H](Cc1ccccc1OC)Oc1ncnc2sc(-c3ccc(F)cc3)c(-c3ccc(OCCN4CCN(C)CC4)c(Cl)c3C)c12` [Example 850, octyl (2R)-2-{[(5Sa)-5-{3-chloro-2-methyl-4-[2-(4-methylpiperazin-1-yl)ethoxy]phenyl}-6-(4-fluorophenyl)thieno[2,3-d]pyrimidin-4-yl]oxy}-3-(2-methoxyphenyl)propanoate], for which the “percentage fluorescence polarisation inhibition (Mcl-1 FP), partial inhibitors” value at Mcl-1 protein (setting [4]) is reported as 29.4% @ 10 uM.

As to `CCCCCCCCOC(=O)[C@@H](Cc1ccccc1OC)Oc1ncnc2sc(-c3ccc(F)cc3)c(-c3ccc(OC)c(Cl)c3C)c12` [Example 851, octyl (2R)-2-{[(5Sa)-5-(3-chloro-4-methoxy-2-methylphenyl)-6-(4-fluorophenyl)thieno[2,3-d]pyrimidin-4-yl]oxy}-3-(2-methoxyphenyl)propanoate], on Mcl-1 protein (setting [4]), the “percentage fluorescence polarisation inhibition (Mcl-1 FP), partial inhibitors” value worked out at 7.85% @ 10 uM. In the case of `Cc1c(-c2c(-c3ccc(F)cc3)sc3ncnc(OC(Cc4ccccc4OCc4ccnc(-c5ccccc5F)n4)C(=O)OCOC(=O)C(C)(C)C)c23)ccc(OCCN2CCN(C)CC2)c1Cl` [Example 854, {[(2R)-2-{[(5Sa)-5-{3-chloro-2-methyl-4-[2-(4-methylpiperazin-1-yl)ethoxy]phenyl}-6-(4-fluorophenyl)thieno[2,3-d]pyrimidin-4-yl]oxy}-3-(2-{[2-(2-fluorophenyl)pyrimidin-4-yl]methoxy}phenyl)propanoyl]oxy}methyl 2,2-dimethylpropanoate], the IC50 on Mcl-1 protein (setting [5]) was determined as 1.72e-07 M. For the compound `CCOC(=O)C(Cc1ccccc1OCc1ccnc(-c2ccccc2CO)n1)Oc1ncnc2sc(-c3ccc(F)cc3)c(-c3ccc(OCCN4CCN(C)CC4)c(Cl)c3C)c12` [Example 856, ethyl (2R)-2-{[(5Sa)-5-{3-chloro-2-methyl-4-[2-(4-methylpiperazin-1-yl)ethoxy]phenyl}-6-(4-fluorophenyl)thieno[2,3-d]pyrimidin-4-yl]oxy}-3-[2-({2-[2-(hydroxymethyl)phenyl]pyrimidin-4-yl}methoxy)phenyl]propanoate], the half-inhibitory concentration (IC50) on Mcl-1 protein (setting [5]) was found to be 9.79e-07 M. As to `CCOC(=O)[C@@H](Cc1ccccc1OCc1ccnc(-c2ccccc2CO)n1)Oc1ncnc2sc(-c3ccc(F)cc3)c(-c3ccc(OCCN(C)C)c(Cl)c3C)c12` [Example 857, ethyl (2R)-2-{[(5Sa)-5-{3-chloro-4-[2-(dimethylamino)ethoxy]-2-methylphenyl}-6-(4-fluorophenyl)thieno[2,3-d]pyrimidin-4-yl]oxy}-3-[2-({2-[2-(hydroxymethyl)phenyl]pyrimidin-4-yl}methoxy)phenyl]propanoate], the “percentage fluorescence polarisation inhibition (Mcl-1 FP), partial inhibitors” value at Mcl-1 protein (setting [4]) was 77.85% @ 10 uM.

Turning to `COc1ccccc1-c1nccc(COc2ccccc2CC(Oc2ncnc3sc(-c4ccc(F)cc4)c(-c4ccc(OCCN5CCN(C)CC5)c(Cl)c4C)c23)C(=O)OC(C)OC(C)=O)n1` [Example 858, 1-(acetyloxy)ethyl (2R)-2-{[(5Sa)-5-{3-chloro-2-methyl-4-[2-(4-methylpiperazin-1-yl)ethoxy]phenyl}-6-(4-fluorophenyl)thieno[2,3-d]pyrimidin-4-yl]oxy}-3-(2-{[2-(2-methoxyphenyl)pyrimidin-4-yl]methoxy}phenyl)propanoate], on Mcl-1 protein (setting [5]), the IC50 came out at 2.11e-07 M. Still for that read-out and setting: in the case of `COc1ccccc1-c1nccc(COc2ccccc2CC(Oc2ncnc3sc(-c4ccc(F)cc4)c(-c4ccc(OCCN5CCN(C)CC5)c(Cl)c4C)c23)C(=O)OC(C)OC(=O)C(C)(C)C)n1` [Example 859, 1-{[(2R)-2-{[(5Sa)-5-{3-chloro-2-methyl-4-[2-(4-methylpiperazin-1-yl)ethoxy]phenyl}-6-(4-fluorophenyl)thieno[2,3-d]pyrimidin-4-yl]oxy}-3-(2-{[2-(2-methoxyphenyl)pyrimidin-4-yl]methoxy}phenyl)propanoyl]oxy}ethyl 2,2-dimethylpropanoate] it was 1.13e-06 M; in that of `CCC(=O)OC(C)OC(=O)C(Cc1ccccc1OCc1ccnc(-c2ccccc2OC)n1)Oc1ncnc2sc(-c3ccc(F)cc3)c(-c3ccc(OCCN4CCN(C)CC4)c(Cl)c3C)c12` [Example 860, 1-(propanoyloxy)ethyl (2R)-2-{[(5Sa)-5-{3-chloro-2-methyl-4-[2-(4-methylpiperazin-1-yl)ethoxy]phenyl}-6-(4-fluorophenyl)thieno[2,3-d]pyrimidin-4-yl]oxy}-3-(2-{[2-(2-methoxyphenyl)pyrimidin-4-yl]methoxy}phenyl)propanoate], 2.04e-07 M.

Consider `COc1ccccc1-c1nccc(COc2ccccc2CC(Oc2ncnc3sc(-c4ccc(F)cc4)c(-c4ccc(OCCN5CCN(C)CC5)c(Cl)c4C)c23)C(=O)OC(C)OC(=O)C(C)C)n1` [Example 861, 1-[(2-methylpropanoyl)oxy]ethyl (2R)-2-{[(5Sa)-5-{3-chloro-2-methyl-4-[2-(4-methylpiperazin-1-yl)ethoxy]phenyl}-6-(4-fluorophenyl)thieno[2,3-d]pyrimidin-4-yl]oxy}-3-(2-{[2-(2-methoxyphenyl)pyrimidin-4-yl]methoxy}phenyl)propanoate], for which the IC50 on Mcl-1 protein (setting [5]) worked out at 5.77e-07 M.

`COCC(=O)OC(C)OC(=O)[C@@H](Cc1ccccc1OCc1ccnc(-c2ccccc2OC)n1)Oc1ncnc2sc(-c3ccc(F)cc3)c(-c3ccc(OCCN4CCN(C)CC4)c(Cl)c3C)c12` (stereo partly drawn) [Example 864, 1-[(methoxyacetyl)oxy]ethyl (2R)-2-{[5-{3-chloro-2-methyl-4-[2-(4-methylpiperazin-1-yl)ethoxy]phenyl}-6-(4-fluorophenyl)thieno[2,3-d]pyrimidin-4-yl]oxy}-3-(2-{[2-(2-methoxyphenyl)pyrimidin-4-yl]methoxy}phenyl)propanoate]: the IC50 on Mcl-1 protein (setting [5]) was found to be 2.7e-08 M. As for “(2R)-2-{[(5Sa)-5-(3-chloro-2-methylphenyl)-6-ethylthieno[2,3-d]pyrimidin-4-yl]oxy}-3-phenylpropanoic acid and (2S)-2-{[(5Ra)-5-(3-chloro-2-methylphenyl)-6-ethylthieno[2,3-d]pyrimidin-4-yl]oxy}-3-phenylpropanoic acid [Example 449]”, the IC50 at Mcl-1 protein (fluorescence polarisation, Method 1, or Method 2) came to 2.8e-08 M.

What is called IC50 is the midpoint of a concentration-inhibition curve.

The record behind these values is patent publication US9670227B2, “Thienopyrimidine derivatives, a process for their preparation and pharmaceutical compositions containing them” (LES LABORATOIRES SERVIER, priority 2013, dated 2017).
